This is an account of results in patent publication US20260021138A1, “EXTRACELLULAR VESICLES AND PARTICLES FROM IMMUNE CELLS FOR PROVIDING ANTICANCER ACTIVITY” (LIETUVOS SVEIKATOS MOKSLU UNIVERSITETAS, priority 2022, published 2026).

Test [1] concerns human microglial cultures (HMC-3). Put plainly: Total cell number after poly(I:C) treatment, microglia. Type of test: cell-based. The settings on record: 24 hours after the poly(I:C) treatment; data not shown.
The subject of test [2] is U-937-derived macrophage cell cultures. Kind of test: Total cell number after poly(I:C) treatment, macrophages. Type of test: cell-based, human. The settings on record: 24 hours after the poly(I:C) treatment; data not shown. Here is the method: CELL CULTURES FOR EV PRODUCTION. Human monocytes U-937 (ATCC, CRL1593.2) were maintained in RPMI-1640 medium with GlutaMAX (Thermo Fisher Scientific) supplemented with 10% exosome-free FBS (Thermo Fisher Scientific) and 1000 IU/mL penicillin-streptomycin (Gibco, Thermo Fisher Scientific). U-937 were grown in T150 (30 mL medium) tissue culture flasks at 37° C. (incubator New Brunswick Galaxy 170S, Eppendorf) until the settled cells covered 65-75% of the vial bottom. For induction of cell differentiation, the cell medium was changed to Macrophage-SFM medium (Thermo Fisher Scientific) with 200 nM phorbol myristate acetate (PMA, Merck) and the cells were left for 24 hours in a Soft Flask. After this, the medium was replaced with Macrophage-SFM without PMA and kept in the incubator for 48 hours.
For TLR-3 pathway stimulation, U-937-derived macrophages and HMC-3 cells were treated with 10 μg/mL poly(I:C) for 1 hour (FIG. 1A, C). For induction of large EV shedding, the stimulation time was increased to 8 hours (FIG. 1B, D). After the treatments, the large EVs were collected by a series of centrifugation. First, the media were centrifuged for 10 min at 800×g to remove cells and large cell debri. Then, the supernatant was centrifuged at 14000×g for 30 minutes to spin down large EVs. The EV pellets were resuspended in PBS by pipetting up and down several times. […]

The test system of the next test is HROG-36 GBM 3D spheroids. Put plainly: GBM cell migration area in 3D cell cultures. Type of test: cell-based, human. The settings on record: at higher concentrations. Here is the method: For EV internalisation assessment in 2D GBM cell cultures, AF555-labelled EV solutions in PBS were applied to mixed glial and microglial cultures making a final concentration of 50 μg/mL of total EV protein. The cells were visualised by a fluorescent microscope Zeiss Axio Observer.Z1 (Carl Zeiss, Jena, Germany). For 3D GBM cell cultures, U-bottom 96-well plates were coated with a thin layer of 2% agarose prior to cell seeding. The cells were seeded at a density of 10000 per well, and the plate was centrifuged at 280×g for 7 min. […] The spheroid diameter was monitored under a light microscope on each day of culture (FIG. 17). […]
For EV efficiency on GBM cell migration in 3D GBM cell cultures, microscopic images of the cultures were taken at the start and at the end (72 hours), and the area covered by cells was calculated. […] Using the ImageJ software package, the area occupied by migrating spheroid cells was assessed, and the area of the spheroid at the initial time point was subtracted, as indicated in FIG. 24C. Representative images before and after treatment with U-937-derived macrophage and HMC-3 microglial EVs with and without DOX or TMZ and the same amount of free DOX are presented in FIG. 20-23, and quantitative assessment results—in FIG. 24.

For the compound poly(I:C), the “cell numbers significantly increased by” value in test [1] stood at 22±7%. For the same compound, the “Total cell numbers decreased by” value in test [2] was determined as 15±2%.

`COc1cccc2c1C(=O)c1c(O)c3c(c(O)c1C2=O)C[C@@](O)(C(=O)CO)C[C@@H]3O[C@H]1C[C@H](N)[C@H](O)[C@H](C)O1` [DOX, doxorubicin]: in the test with HROG-36 GBM 3D spheroids, the “GBM migration suppression, free drug versus loaded EVs” value is on record as “more efficient”.
